The source of these data is article PMC10525890, “Selective Inhibition of Cardiac Late Na^+ Current Is Based on Fast Offset Kinetics of the Inhibitor” (Biomedicines, 2023).

Where “and” joins values, the source holds several entries; their conditions need not be identical. Identical values can stand only once. A value given as a limit tells only on which side of the number the result lay.

The test system of one assay is INaL over INaP. The following applies: cited from earlier work.
Assay [1] relates to peak Na+ current (INaP) estimated as V+max. Briefly: Onset kinetics of V+max block during 2.5 Hz train after 1 min rest. The class given is cell-based, canine. The following applies: initial 40 APs, 1 µM GS967, 20 µM mexiletine, 10 µM quinidine. As for the experimental part: (§1) Right ventricular papillary muscles were applied for AP recordings using the conventional sharp microelectrode technique, as described previously. Membrane potential changes were recorded at 37 °C using sharp microelectrodes filled with 3 M KCl (tip resistance 10–20 MΩ) and connected to the input of an amplifier (MDE GmbH, Heidelberg, Germany). The preparations were stimulated with current pulses having durations of 1 ms and amplitudes of 200% diastolic threshold using a pair of platinum electrodes. Before starting the experiment, the preparations were paced at a cycle length of 1 s for at least 60 min allowing equilibration. After this period, the cycle length was sequentially changed between 0.3 and 5 s and the 25th AP was recorded at each cycle length. […] APs were sampled at 100 kHz with an ADA 3300 data acquisition board (Real Time Devices Inc., State Collage, PA, USA) and stored for later analysis.
The onset kinetics of drug action on V^+max were determined by stimulating the preparation at a short cycle length of 0.4 s following a 1 min period of rest and the initial 40 APs were recorded. The V^+max values of the consecutive APs were plotted as a function of the number of the AP within the train. The onset rate constant was determined by fitting the consecutive V^+max values to a monoexponential function.

Assay [2] has the same test system. Nature of the assay: Offset kinetics: restitution of V+max with extra stimuli after 1 Hz trains. Type of assay: cell-based, canine. The following applies: monoexponential fit, basic cycle length 1 s; 1 µM GS967, 20 µM mexiletine. Here is the method: as §1
Assay [3] relates to late Na+ current (INaL). Nature of the assay: INaL dissected by drug under action potential voltage clamp (APVC) in isolated ventricular myocytes. Type of assay: cell-based, canine. The following applies: cycle length 700 ms, 37 °C, 1 µM GS967, 20 µM mexiletine, 10 µM quinidine, mean ± SEM. Here is the method: (§2) Single canine ventricular myocytes were isolated using a segment perfusion technique, as previously described. Briefly, the LAD coronary artery was cannulated and used for supplying solutions required for the dissociation of the individual cells with minimal injury. After dissection, the tissue was first perfused with a nominally Ca^2+-free solution (Minimum Essential Medium Eagle, Joklik Modification, Sigma-Aldrich Co., St. Louis, MO, USA) for 5 min in order to reduce the Ca^2+ load and also to promote the uncoupling of cell-to-cell junctions. Following this, the perfusate was supplemented with 1 mg/mL collagenase (Type II, final activity of 224 U/mL, Worthington Biochemical Co., Lakewood, NJ, USA) and 0.2% bovine serum albumin (Fraction V., Sigma) in the presence of 50 µM Ca^2+. This step was applied for 30 min to digest the collagen fibers in the extracellular matrix, resulting in the release of individual cells. […] The cells were kept at 15 °C before use, allowing normalization of their intracellular ionic composition. All chemicals applied in these experiments were purchased from Sigma-Aldrich Co. (St. Louis, MO, USA).
(§3) The cells, studied by an inverted microscope, were continuously superfused with a modified Tyrode at a rate of 1–2 mL/min. The modified Tyrode solution contained (in mM): NaCl: 121; KCl: 4; CaCl2: 1.3; MgCl2: 1; HEPES: 10; NaHCO3: 25; glucose: 10; pH: 7.35; osmolarity: 300 ± 3 mOsm. The temperature of this perfusate was set to 37 °C with a temperature controller (Cell MicroControls, Norfolk, VA, USA). Electrical signals were generated, amplified and recorded using a MultiClamp 700A or 700B amplifier under the control of pClamp 10 software (Molecular Devices, Sunnyvale, CA, USA) after analogue-to-digital conversion (Digidata 1440A or 1332, Molecular Devices). The electrodes were manufactured from borosilicate glass. The tip resistance of these micropipettes ranged between 2 and 3 MΩ when filled with pipette solution. Ion currents were recorded under whole-cell voltage clamp conditions. The series resistance was typically 4–8 MΩ. The measurement was discarded when the series resistance changed substantially during the experimental period.
APVC experiments were performed according to the methods described previously. This technique allows for the visualization of various ion currents flowing during an actual ventricular AP by using a selective inhibitor of the respective ion current. In these experiments, therefore, a midmyocardial canine ventricular AP was applied as a command signal. The current traces were continuously recorded before and after a 5 min superfusion with the applied Na^+ channel inhibitor. The drug-sensitive current was obtained by subtracting the post-drug trace from the reference pre-drug trace. When measuring INaL, the external solution was supplemented with 1 µM nisoldipine, 1 µM E4031 and 100 µM chromanol 293B, in order to eliminate contaminations by Ca^2+ and K^+ currents. The pipette solution contained (in mM): K-aspartate, 120; KCl, 30; MgATP, 3; HEPES, 10; Na2-phosphocreatine, 3; EGTA, 0.01; cAMP, 0.002; KOH, 10; at pH = 7.3; osmolarity of 285 mOsm. The amplitude of INaL was measured at 50% duration of the APD90 value of the command AP. The initial 20 ms period following the AP upstroke was excluded from evaluation when determining the current integral in order to eliminate the contribution of INaP. A total of 20 consecutive current traces were averaged and analyzed in each experiment to reduce the noise and the trace-to-trace fluctuations of the AP configuration. Ion currents were normalized to cell capacitance, determined by applying a short (15 ms) hyperpolarizing pulse from +10 mV to −10 mV.

The test system of another assay is Nav1.5. Further details: method as in PMID 27136942, PMID 32938719. The following applies: cited from earlier work.
A further assay deals with Nav1.8. The following applies: stated in discussion, no reference given; cited from earlier work.
The test system of the next assay is Nav1.1. Further details: method as in PMID 31730442. The following applies: cited from earlier work.
A further assay relates to Nav2.1. The following applies: stated in discussion, no reference given; cited from earlier work.
In assay [4] the test system is peak Na+ current (INaP) estimated as V+max. Briefly: Steady-state V+max of action potential upstroke (indicator of INaP), right ventricular papillary muscle, sharp microelectrode. Type of assay: cell-based, canine. The following applies: 1 µM GS967, 20 µM mexiletine, 10 µM quinidine; for V+max block: cycle length 700 ms; for cycle lengths at which V+max was significantly reduced: cycle lengths 0.3-5 s tested. Here is the method:
as §1

The subject of assay [5] is late Na+ current (INaL). Briefly: INaL under conventional voltage clamp (2 s pulses to −20 mV from −120 mV) in isolated ventricular myocytes. The following applies: for inhibition of INaL current integral: 1 µM GS967, 20 µM mexiletine, 10 µM quinidine; for inhibition of INaL density: at 50 ms, 1 µM GS967 (n = 6), 20 µM mexiletine (n = 5), 10 µM quinidine (n = 6); for INaL current integral (charge carried), post-drug: initial 20 ms excluded, 1 µM GS967 (pre-drug −69.1 ± 7.9), 20 µM mexiletine (pre-drug −68.6 ± 6.2), 10 µM quinidine (pre-drug −68.2 ± 11.7); for INaL density at 50 ms after start of pulse, post-drug: −20 mV from −120 mV, 1 µM GS967 (pre-drug −0.313 ± 0.035), 20 µM mexiletine (pre-drug −0.337 ± 0.035), 10 µM quinidine (pre-drug −0.333 ± 0.043). Type of assay: cell-based, canine. Here is the method: as §2, §3
Rectangular command pulses were applied in conventional voltage clamp experiments to study the effects on INaL at stable test potentials, as described previously. The cells were perfused with HEPES-buffered Tyrode solution containing (in mM): NaCl, 144; NaH2PO4, 0.4; KCl, 4.0; CaCl2, 1.8; MgSO4, 0.53; glucose, 5.5; HEPES, 5.0; at pH = 7.4. This solution contained 1 µM nisoldipine, 0.5 µM HMR-1556 and 0.1 µM dofetilide in order to block the Ca^2+ and K^+ currents. The pipette solution contained (in mM): CsCl, 125; TEACl, 20; MgATP, 5; EGTA, 10; HEPES, 10; at pH = 7.2. Test pulses of 2 s duration were clamped to −20 mV from the holding potential of −120 mV. The total amount of INaL was determined by pharmacological subtraction using a final superfusion with 20 µM TTX. The amplitude of INaL was determined at 50 ms following the start of the pulse. When measuring the charge carried by INaL (integral), the initial 20 ms of the current was excluded from evaluation to minimize the contamination with INaP.

Turning to `CCCCc1oc2ccccc2c1C(=O)c1cc(I)c(OCCN(CC)CC)c(I)c1` [amiodarone], the “selectivity for INaL over INaP” value in the assay on INaL over INaP is given as 13 fold.
For `COc1ccccc1OCC(O)CN1CCN(CC(=O)Nc2c(C)cccc2C)CC1` (stereo not drawn) [ranolazine], in the assay on INaL over INaP, the “selectivity for INaL over INaP” value was 38 fold.
For the compound `FC(F)(F)Oc1ccc(-c2ccc3nnc(C(F)(F)F)n3c2)cc1` [GS967], the “onset rate constant of V+max block” value in assay [1] is 6.4 ± 0.9 AP and 5.3±0.8 AP. The “offset time constant (recovery of V+max)” value in [2] is given as 110 ± 6 ms. For the same compound, in the assay with late Na+ current (INaL) [3], the “drug-sensitive INaL current density measured at 50% duration of APD90 of the command AP” value is −0.37 ± 0.07 A/F and the “drug-sensitive INaL current integral (initial 20 ms excluded)” value (“drug-sensitive INaL current integral” below) was −56.7 ± 9.1 mC/F. Further, the “block of cardiac Nav1.5 channel isoform” value with Nav1.5 is given as “strongly block”. Besides, in the assay on Nav1.8, the “inhibition of Nav1.8” value is reported as “does not inhibit”. The “sensitivity of neuronal Nav1.1” value in the assay with Nav1.1 is “sensitive”. Also, in the assay with Nav2.1, the “inhibition of Nav2.1” value is reported as “does not inhibit”. Further, in [4], the “V+max block” value was 2.3% and the “cycle lengths at which V+max was significantly reduced” value is recorded as less than 500 ms. Also, in the assay on late Na+ current (INaL) [5], the “inhibition of INaL current integral” value turned out to be 79.0%; the “inhibition of INaL density” value was 80.4 ± 2.2%; the “INaL current integral (charge carried), post-drug” value (from here on “INaL current integral … post-drug”) is on record as −15.4 ± 3.9 mC/F; the “INaL density at 50 ms after start of pulse, post-drug” value (from here on “INaL density at 50 ms after start”) was −0.062 ± 0.01 A/F.
With `C=C[C@H]1C[N@@]2CC[C@H]1C[C@@H]2[C@@H](O)c1ccnc2ccc(OC)cc12` [quinidine], in the assay with late Na+ current (INaL) [3], the “drug-sensitive INaL current density measured at 50% duration of APD90 of the command AP” value was −0.377 ± 0.06 A/F and the “drug-sensitive INaL current integral” value is recorded as −61.2 ± 8.8 mC/F. In addition, in the assay on late Na+ current (INaL) [5], the “inhibition of INaL current integral” value came out at 37.1%; the “inhibition of INaL density” value amounted to 43.3 ± 2.2%; the “INaL current integral … post-drug” value was −42.9 ± 9.2 mC/F; the “INaL density at 50 ms after start” value is recorded as −0.186 ± 0.02 A/F.
`O=C(NCC1CCCCN1)c1cc(OCC(F)(F)F)ccc1OCC(F)(F)F` (stereo not drawn) [flecainide]: the “selectivity for INaL over INaP” value in the assay with INaL over INaP is given as 3 fold.
Turning to `Cc1cccc(C)c1OCC(C)N` (stereo not drawn) [mexiletine], in assay [1], the “onset rate constant of V+max block” value was 3.4 ± 0.4 AP. Besides, the “offset time constant (recovery of V+max)” value in assay [2] is recorded as 456 ± 284 ms. For the same compound, in the assay with late Na+ current (INaL) [3], the “drug-sensitive INaL current density measured at 50% duration of APD90 of the command AP” value is listed as −0.375 ± 0.07 A/F and the “drug-sensitive INaL current integral” value was −65.2 ± 11.5 mC/F. Also, in assay [4], the “V+max block” value was 11.4% and the “cycle lengths at which V+max was significantly reduced” value was less than 700 ms. For the same compound, in the assay with late Na+ current (INaL) [5], the “inhibition of INaL current integral” value came out at 46.1%; the “inhibition of INaL density” value came out at 41.9 ± 3.7%; the “INaL current integral … post-drug” value was −37.0 ± 4.7 mC/F; the “INaL density at 50 ms after start” value was −0.197 ± 0.026 A/F.
